According to paper PMC6720511, “Synthesis and biological evaluation of novel N-(piperazin-1-yl)alkyl-1H-dibenzo[a,c]carbazole derivatives of dehydroabietic acid as potential MEK inhibitors” (Journal of Enzyme Inhibition and Medicinal Chemistry, 2019):

Legend:
Assay type in all cases: cell-based, human
HepG2 cells [1] = assay: Mitochondrial membrane potential assay (JC-1)
Procedure: The JC-1 mitochondrial membrane potential assay kit (Keygene Biotech., China) was employed to measure mitochondrial depolarization in HepG2 cells. Briefly, cells cultured in six-well plates after indicated treatments were incubated with an equal volume of JC-1 staining solution (5 µg/mL) at 37 °C for 20 min and rinsed twice with PBS. Mitochondrial membrane potentials were monitored by determining the relative amounts of dual emissions from mitochondrial JC-1 monomers or aggregates using flow cytometry (Becton-Dickinson FACSCalibur, New York, USA). Mitochondrial depolarization is indicated by an increase in the pencentage of cells with low ΔΨm (green fluorescence, lower right quadrant) compared with cells with high ΔΨm (red fluorescence, upper right quadrant).

HepG2 cells [2] = assay: Annexin V-FITC/PI dual staining assay; conditions: HepG2, 2 µM (as printed in text), 48 h
Procedure: The extent of apoptosis was quantitatively measured using Annexin V-FITC/PI dual staining assay. HepG2 cells were seeded into a six-well plate at 5 × 10^5 cells per well in 10% foetal calf serum (FBS)-DMEM into six-well plates and treated with different concentrations of the indicated compound 10g for 48 h. The cells were detached with 0.25% trypsin, washed with ice-cold PBS for twice and then resuspended in 1 × Binding buffer (0.1 M Hepes/NaOH (pH 7.4), 1.4 M NaCl, 25 mM CaCl2). The cells were stained with 5 µL of Annexin V-FITC and 5 µL of PI (propidium iodide) to each tube. The cells were gently vortexed and incubated in the dark at room temperature for 15 min and then keep them at 4 °C. The samples were analysed by a flow cytometer (Becton-Dickinson FACSCalibur, NJ, USA) and data were analysed using the FlowJo software (Becton-Dickinson & Co, Totowa, NJ, USA).

HepG2 cells [3] = assay: ROS generation assay (DCFH-DA); conditions: dose-dependent
Procedure: Reactive oxygen species (ROS) generation assay was performed by using the reactive oxygen species assay kit (Beyotime Biotech., China). Intracellular ROS generation was tested through dichlorodihydro fluorescein diacetate (DCFH-DA) assay. DCFH-DA is taken up by HepG2 cells, and then activated by esterase-mediated cleavage of acetate to form dichlorodihydro fluorescein (DCFH), which is trapped in the cells. DCFH is converted to fluorescein DCF in the presence of ROS. HepG2 cells were seeded in six-well plates and incubated with different concentrations of compound 10g for 24 h. After removing the compound solution, cells were treated with 10 µM of DCFH-DA at 37 °C for 20 min. Subsequently, the cells were washed with PBS for three times and then exposed to light. Immediately after light exposure, cell images were acquired through an inverted fluorescence microscope (Olympus 1X71 Inverted System Microscope, Olympus, Tokyo, Japan).

pERK1/2 = assay: Western blot of ERK and pERK in HepG2 cells; conditions: 48 h
Procedure: HepG2 cells were seeded at a density of 5 × 10^6 cells per well and attached for 8 h, and then treated with different concentrations of compound 10g for 48 h. After the treatment, the cells were harvested and washed twice with PBS. The harvested cells were lysed with radio-immunoprecipitation assay (RIPA) lysis buffer (Beyotime Biotech., Nantong, China) with 1% cocktail (Sigma-Aldrich, USA). Whole-cell protein lysates were prepared and centrifuged at 12,000 rpm for 10 min at 4 °C. The total proteins were determined using Bradford reagent (Bio-Rad Laboratories, Inc., USA). Exactly 40 µg of protein per lane was separated through sodium dodecyl sulfate-polyacrylamide gel electrophoresis and then transferred onto a polyvinylidene difluoride membrane (Millipore, Bedford, MA, USA). The membranes were incubated with each antibody and detected through immunoblot analysis. All of the antibodies were purchased from Cell signaling Technology, Inc. (Boston, MA, USA) and diluted in accordance with the manufacturer’s instruction. Proteins were visualized using a C-Digit® imaging system (LI-COR Biosciences, Lincoln, NE, USA).

In the case of `CCOc1ccc2c(c1)c1c(n2CCN2CCNCC2)-c2cc(C(C)C)ccc2C2(C)CCCC(C)(C(=O)OC)C12` (stereo not drawn) [Compound 10g, 2,3,4,4a,9,13c-Hexahydro-12-ethoxy-7-isopropyl-1,4a-dimethyl-9–(2-(piperazin-1-yl)ethyl)-1H-dibenzo[a,c]carbazole-1-carboxylic acid methyl ester], the “percentage of cells with low ΔΨm (lower right quadrant)” value (HepG2 cells [1]; HepG2, 0.2 µM) is reported as 5.29%, the “percentage of cells with low ΔΨm (lower right quadrant)” value (HepG2 cells [1]; HepG2, 0.5 µM) is reported as 9.47% and the “percentage of cells with low ΔΨm (lower right quadrant)” value (HepG2 cells [1]; HepG2, 1.0 µM) is reported as 15.00%. For the same compound, the “percentage of early and late apoptotic cells” value (HepG2 cells [2]) was 60.02%, the “ROS generation (in words)” value (HepG2 cells [3]) was “remarkably induce ROS generation” and the “expression level of pERK1/2, % of the control group” value (pERK1/2; 0.1 µM) was 88.8%. The “expression level of pERK1/2, % of the control group” value (pERK1/2; 0.5 µM) was 43.8%, the “expression level of pERK1/2, % of the control group” value (pERK1/2; 1.0 µM) was 34.2% and the “expression levels of ERK1/2 (in words)” value (pERK1/2; 0.1-1.0 µM) was “decreased slightly”.
